According to BindingDB's records for doi:10.1021/jm031011g (Xenova, 2004):

Columns and labels:
[1] = target: Multidrug resistance-associated protein 1 (Homo sapiens) (UniProt P33527); experiment: Effective concentration to inhibit MRP1 in potentiation assay
[2] = target: Multidrug resistance-associated protein 1 (Homo sapiens) (UniProt P33527); experiment: as above; remark: listed apart in the source

Sequence of Multidrug resistance-associated protein 1 (Homo sapiens) (P33527 whole entry, looked up): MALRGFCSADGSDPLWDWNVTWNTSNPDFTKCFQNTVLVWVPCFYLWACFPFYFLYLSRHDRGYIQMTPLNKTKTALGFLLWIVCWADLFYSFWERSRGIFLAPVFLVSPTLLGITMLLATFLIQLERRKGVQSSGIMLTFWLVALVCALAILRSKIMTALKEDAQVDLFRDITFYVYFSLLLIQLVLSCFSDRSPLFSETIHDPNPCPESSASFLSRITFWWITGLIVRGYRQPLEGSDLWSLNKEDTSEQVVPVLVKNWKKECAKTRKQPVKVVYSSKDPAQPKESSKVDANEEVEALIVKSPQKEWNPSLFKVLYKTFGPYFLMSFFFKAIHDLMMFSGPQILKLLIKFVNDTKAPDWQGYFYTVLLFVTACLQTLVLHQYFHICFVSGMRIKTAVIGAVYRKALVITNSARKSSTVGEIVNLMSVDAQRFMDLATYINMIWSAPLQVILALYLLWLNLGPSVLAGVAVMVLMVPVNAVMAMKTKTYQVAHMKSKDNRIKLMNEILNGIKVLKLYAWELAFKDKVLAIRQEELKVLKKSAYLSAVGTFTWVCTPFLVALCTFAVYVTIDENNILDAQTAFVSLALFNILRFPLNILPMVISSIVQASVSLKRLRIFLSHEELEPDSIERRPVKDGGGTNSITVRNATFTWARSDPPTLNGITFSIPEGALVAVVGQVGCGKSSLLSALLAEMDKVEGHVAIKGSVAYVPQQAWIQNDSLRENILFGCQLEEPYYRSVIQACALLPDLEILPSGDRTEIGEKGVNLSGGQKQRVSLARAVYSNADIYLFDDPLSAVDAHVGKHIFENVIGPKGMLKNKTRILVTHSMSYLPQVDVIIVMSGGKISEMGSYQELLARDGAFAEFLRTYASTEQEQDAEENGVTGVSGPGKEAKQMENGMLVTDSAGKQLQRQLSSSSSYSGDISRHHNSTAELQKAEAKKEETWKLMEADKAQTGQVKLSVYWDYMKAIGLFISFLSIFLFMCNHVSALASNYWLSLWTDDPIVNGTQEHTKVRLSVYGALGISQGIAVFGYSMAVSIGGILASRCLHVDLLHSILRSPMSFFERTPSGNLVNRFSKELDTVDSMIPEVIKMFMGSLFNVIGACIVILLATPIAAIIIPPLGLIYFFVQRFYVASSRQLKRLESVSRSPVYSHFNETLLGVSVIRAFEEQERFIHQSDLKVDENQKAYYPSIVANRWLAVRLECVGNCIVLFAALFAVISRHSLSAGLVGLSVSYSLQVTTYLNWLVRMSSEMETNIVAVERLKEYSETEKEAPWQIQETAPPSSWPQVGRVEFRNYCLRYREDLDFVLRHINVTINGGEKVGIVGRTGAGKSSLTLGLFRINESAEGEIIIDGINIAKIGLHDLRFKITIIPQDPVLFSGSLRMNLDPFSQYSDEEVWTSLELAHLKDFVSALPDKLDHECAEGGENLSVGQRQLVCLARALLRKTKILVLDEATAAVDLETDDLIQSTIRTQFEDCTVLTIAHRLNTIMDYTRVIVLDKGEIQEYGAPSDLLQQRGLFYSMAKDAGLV

COc1cccc(CNC(=O)c2c3n(c4c(N5CCN(CCc6ccc(F)c(F)c6)CC5)ncnc24)CCCC3)c1OC [4-{4-[2-(3,4-Difluoro-phenyl)-ethyl]-piperazin-1-yl}-6,7,8,9-tetrahydro-pyrimido[4,5-b]indolizine-10-carboxylic acid 2,3-dimethoxy-benzylamide]
EC50 [1]: 150 nM

O=C(NCc1ccccn1)c1c2n(c3c(N4CCN(CCc5ccc(F)c(F)c5)CC4)ncnc13)CCCC2 [4-{4-[2-(3,4-Difluoro-phenyl)-ethyl]-piperazin-1-yl}-6,7,8,9-tetrahydro-pyrimido[4,5-b]indolizine-10-carboxylic acid (pyridin-2-ylmethyl)-amide]
EC50 [2]: 97 nM

NC(=O)c1c2n(c3c(N4CCN(CCc5ccc(F)c(F)c5)CC4)ncnc13)CCCC2 [4-{4-[2-(3,4-Difluoro-phenyl)-ethyl]-piperazin-1-yl}-6,7,8,9-tetrahydro-pyrimido[4,5-b]indolizine-10-carboxylic acid amide]
EC50 [2]: 117 nM
